Here are results for one substance from patent publication US20250136652A1, “FUSION PROTEIN FOR TARGETING RECOMBINANT PROTEINS FOR DEGRADATION” (The Regents of the University of California, priority 2022, published 2025).

For assay [1], the system named is green fluorescent protein (GFP) target. Kind of assay: STUD-induced degradation of GFP target in Jurkat T cells, flow cytometry. To be noted: GFP normalized by tagBFP, 72 hours following removal of lentivirus. The class given is cell-based. The procedure: Jurkat cells were lentivirally transduced with two plasmids. The first encodes a STUD, or control with a mutated degron, and a mCherry transduction marker separated by a 2A element and the second encodes GFP target protein and a BFP transduction marker separated by a 2A element. In the case of the SynZip STUD, the GFP target is fused to a heterodimeric SynZip protein complementary to the binding domain on the STUD. These transduced cells are analyzed for fluorescence by flow cytometry […] after removal of virus. Cells are first gated on these transduction markers to isolate relevant populations. Then, normalized GFP fluorescence is calculated by normalizing each cell's GFP fluorescence, as obtained by flow cytometry, by its BFP fluorescence. Then, the median normalized GFP fluorescence of each flow cytometry distribution is calculated and shown in the bar plot. Each dot represents the mean of the median normalized GFP fluorescence of three technical replicates in three independent experiments. […]
Either the SynZip STUD and the antiGFP nanobody STUD in Jurkat T cells alongside a plasmid encoding either GFP fused to a complementary SynZip or GFP alone, respectively (FIG. 2B) were lentivirally transduced. 72 hours following removal of lentivirus, we assay for GFP fluorescence by flow cytometry. […] Representative histograms of unnormalized GFP fluorescence are also shown for reference. […]
In general terms: Flow cytometry measures light scatter and fluorescence of single cells or particles in a stream.

Assay [2] deals with synthetic drug-inducible transcription factor (SynTF) fused to a SynZip. Kind of assay: STUD negative feedback circuit regulating SynTF in Jurkat T cells, GFP reporter. The class given is cell-based. Conditions: GZV 72 hours at 37 C. The source says: FIG. 6A: STUDs can be composed into negative feedback circuit to regulate synthetic transcription factor (SynTF). Cartoon diagram of plasmids used in negative feedback circuit transduced into Jurkat T cells. Synthetic transcription factors used in this work (grey) are made up of a transcriptional activation domain (AD) and a DNA binding domain (DBD) separated by a NS3 protease. In the absence of the NS3 inhibitor grazoprevir (GZV), the TF is destabilized and non-functional. On the other hand, the addition of GZV stabilizes the TF and allows for transcription of the gene cassette downstream of the SynTF promoter (pSynTF). Three types of circuits were designed: (1) A negative feedback circuit that has the SynTF driving expression of the GFP reporter and the STUD which results in degradation of the SynTF and shut off the circuit. […]
The circuit has three components: (1) a synthetic drug-inducible transcription factor (SynTF) fused to a SynZip, (2) a GFP reporter, and (3) a SynZip STUD that targets the SynTF (FIG. 6A). […] After incubation, we assay for GFP fluorescence by flow cytometry and gate on cells expressing the co-transduction markers (mCherry and tagBFP) for both plasmids relative to a untransduced control. […]

As for “SynZip STUD: Fusion protein SEQ ID NO: 413: lysine-free modified synZIP18 heterodimerization domain, flexible linker, C-terminal RRRG degron; 55 amino acids (SIAATLENDLARLENENARLERDIANLERDLARLEREEAYFGSGSGSGSGSRRRG)”, the “fold change of median normalized GFP fluorescence” value in assay [1] is given as “approximately 42 fold”. Moreover, the “inhibition of SynTF (fold change of median GFP relative to DMSO)” value in assay [2] is “inhibits the SynTF”.
